Assay results from patent US20050282818A1, “Ubiquitin ligase inhibitors” (Rigel Pharmaceuticals, Inc., priority 2004, published 2005).
pIC50: −log10 of the molar value. Read-outs that look alike come from different tables or passages of the source.

Key:
TRAF6/Uev1A/Ubc13 = molecular target: T1, TRAF6/Uev1A/Ubc13 (Homo sapiens, UniProt Q9Y4K3); assay: TRAF6/Uev1A/Ubc13 plate-based ubiquitin ligase assay; type: biochemical
T1 sequence (Q9Y4K3 1-522): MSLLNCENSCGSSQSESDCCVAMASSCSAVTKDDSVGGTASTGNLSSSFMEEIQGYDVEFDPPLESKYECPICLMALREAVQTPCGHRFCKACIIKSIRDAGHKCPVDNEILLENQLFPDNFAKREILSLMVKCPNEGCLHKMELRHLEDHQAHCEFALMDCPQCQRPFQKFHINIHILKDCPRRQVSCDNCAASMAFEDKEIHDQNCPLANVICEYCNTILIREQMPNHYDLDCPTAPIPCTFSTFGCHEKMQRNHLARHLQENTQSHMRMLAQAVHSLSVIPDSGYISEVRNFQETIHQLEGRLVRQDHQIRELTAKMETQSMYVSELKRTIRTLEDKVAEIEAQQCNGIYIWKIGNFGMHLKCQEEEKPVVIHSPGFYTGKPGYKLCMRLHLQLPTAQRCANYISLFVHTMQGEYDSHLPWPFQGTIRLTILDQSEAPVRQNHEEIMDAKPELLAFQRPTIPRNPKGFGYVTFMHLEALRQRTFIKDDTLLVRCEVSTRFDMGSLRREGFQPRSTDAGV
Procedure, shortened: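 Ligase activity was read as luminescence from anti-Flag/HRP detection of Flag-ubiquitin bound to casein-blocked Ni-plates alongside His-ubiquitin after a 1 h room-temperature reaction. Buffer: 62.5 mM Tris pH 7.5, 6.25 mM MgCl2, 1.0 mM DTT, 2 μM ATP; E1, Uev1a/Ubc13 and TRAF6 added last to start. IC50s derived across compound concentrations.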

H1299 cells = assay: Cell proliferation PAD assay, H1299; type: cell-based; conditions: Homo sapiens, 48 hours
Procedure, shortened: (§1)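 Each line, seeded at 2,000 cells/well, received duplicate 6.3-fold compound dilutions (10 mM stock, diluted 500× into medium) one day after plating. Exposure lasted 48 h; fixed cells were DAPI-stained and photographed, and images were analysed for live, apoptotic and dead cell numbers.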

A549 cells = assay: Cell proliferation PAD assay, A549; type: cell-based; conditions: Homo sapiens, 48 hours
Procedure, shortened: as §1

[1] = NCI-H1299, 3pt, read-out: H1299 3pt
[2] = NCI-H1299, 6pt, read-out: H1299 6pt

| Structure (SMILES) | pIC50 (TRAF6/Uev1A/Ubc13) | pIC50 (H1299 cells; [1]) | pIC50 (H1299 cells; [2]) | pIC50 (A549 cells; 3pt, read-out: A549 3pt) | pIC50 (A549 cells; 6pt, read-out: A549 6pt) |
| --- | --- | --- | --- | --- | --- |
| O=S(=O)(c1ccc(Cl)c2nonc12)N1CCN(c2ncccn2)CC1 [compound 184, 4-chloro-7-[(4-pyrimidin-2-ylpiperazin-1-yl)sulfonyl]-2,1,3-benzoxadiazole] | ≤ 4.70 | 4.70 to 6.00 | ≤ 4.70 | 4.70 to 6.00 | ≤ 4.70 |
| O=S(=O)(c1ccc(Cl)c2nonc12)N1CCN(c2ccccc2)CC1 [compound 186, 4-chloro-7-[(4-phenylpiperazin-1-yl)sulfonyl]-2,1,3-benzoxadiazole] | ≤ 4.70 | 4.70 to 6.00 | > 6.00 | 4.70 to 6.00 | 4.70 to 6.00 |
| O=c1[nH]c2ccccc2n1C1CCN(S(=O)(=O)c2ccc(Cl)c3nonc23)CC1 [compound 188, 1-{1-[(7-chloro-2,1,3-benzoxadiazol-4-yl)sulfonyl]piperidin-4-yl}-1,3-dihydro-2H-benzimidazol-2-one] | ≤ 4.70 | 4.70 to 6.00 | > 6.00 | 4.70 to 6.00 | ≤ 4.70 |
| CC1CC(C)CN(S(=O)(=O)c2ccc(Cl)c3nonc23)C1 (centres unmarked) [compound 192, 4-chloro-7-[(3,5-dimethylpiperidin-1-yl)sulfonyl]-2,1,3-benzoxadiazole] | ≤ 4.70 | 4.70 to 6.00 | ≤ 4.70 | 4.70 to 6.00 | ≤ 4.70 |
| N#CC1(c2ccccc2)CCN(S(=O)(=O)c2ccc(O)c3nonc23)CC1 [compound 199, 1-[(7-hydroxy-2,1,3-benzoxadiazol-4-yl)sulfonyl]-4-phenylpiperidine-4-carbonitrile] | ≤ 4.70 | 4.70 to 6.00 | ≤ 4.70 | 4.70 to 6.00 | ≤ 4.70 |
| O=S(=O)(c1c(Cl)ccc2nonc12)N1CCN(c2cnccn2)CC1 [compound 200, 5-chloro-4-[(4-pyrazin-2-ylpiperazin-1-yl)sulfonyl]-2,1,3-benzoxadiazole] | ≤ 4.70 | 4.70 to 6.00 | > 6.00 | 4.70 to 6.00 | ≤ 4.70 |
| CC(=O)N1CCN(S(=O)(=O)c2c(Cl)ccc3nonc23)CC1 [compound 201, 4-[(4-acetylpiperazin-1-yl)sulfonyl]-5-chloro-2,1,3-benzoxadiazole] | ≤ 4.70 | 4.70 to 6.00 | > 6.00 | 4.70 to 6.00 | ≤ 4.70 |
| Cc1cccc(N2CCN(S(=O)(=O)c3c(Cl)ccc4nonc34)CC2)n1 [compound 202, 5-chloro-4-{[4-(6-methylpyridin-2-yl)piperazin-1-yl]sulfonyl}-2,1,3-benzoxadiazole] | ≤ 4.70 | 4.70 to 6.00 | > 6.00 | 4.70 to 6.00 | > 6.00 |
| N#Cc1ccc(N2CCN(S(=O)(=O)c3c(Cl)ccc4nonc34)CC2)nc1 [compound 209, 6-{4-[(5-chloro-2,1,3-benzoxadiazol-4-yl)sulfonyl]piperazin-1-yl}nicotinonitrile] | 4.70 to 6.00 | 4.70 to 6.00 | > 6.00 | 4.70 to 6.00 | > 6.00 |
| CC(=O)N1CCN(S(=O)(=O)c2c(Sc3cccc4cccnc34)ccc3nonc23)CC1 [compound 214, 8-({4-[(4-acetylpiperazin-1-yl)sulfonyl]-2,1,3-benzoxadiazol-5-yl}thio)quinoline] | 4.70 to 6.00 | 4.70 to 6.00 |  | 4.70 to 6.00 |  |
| O=S(=O)(Nc1ccc2cn[nH]c2c1)c1ccc(Cl)c2nonc12 [compound 220, 7-chloro-N-1 H-indazol-6-yl-2,1,3-benzoxadiazole-4-sulfonamide] | ≤ 4.70 | 4.70 to 6.00 | 4.70 to 6.00 | 4.70 to 6.00 | 4.70 to 6.00 |
| O=S(=O)(c1ccc(Sc2ccc(O)cc2)c2nonc12)N1CCC(Oc2ncccn2)CC1 [compound 226, 4-[(7-{[4-(pyrimidin-2-yloxy)piperidin-1-yl]sulfonyl}-2,1,3-benzaxadiazol-4-yl)thio]phenol] | 4.70 to 6.00 |  | 4.70 to 6.00 |  | 4.70 to 6.00 |
| CC1(C)CCN(S(=O)(=O)c2c(Cl)ccc3nonc23)CC1 [compound 245, 5-chloro-4-[(4,4-dimethylpiperidin-1-yl)sulfonyl]-2,1,3-benzoxadiazole] | 4.70 to 6.00 |  | > 6.00 |  | ≤ 4.70 |
| O=S(=O)(Nc1ccc(F)c(F)c1)c1ccc(Cl)c2nonc12 [compound 262, 7-chloro-N-(3,4-difluorophenyl)-2,1,3-benzoxadiazole-4-sulfonamide] | ≤ 4.70 | 4.70 to 6.00 |  | 4.70 to 6.00 |  |
| O=S(=O)(Nc1cccc(F)c1)c1ccc(Cl)c2nonc12 [compound 263, 7-chloro-N-(3-fluorophenyl)-2,1,3-benzoxadiazole-4-sulfonamide] | ≤ 4.70 | 4.70 to 6.00 |  | 4.70 to 6.00 |  |
| Cc1cc(C)cc(-c2cccc3nonc23)c1 [compound 285, 4-(3,5-Dimethylphenyl)-2,1,3-benzoxadiazole] | ≤ 4.70 | ≤ 4.70 |  | ≤ 4.70 | ≤ 4.70 |
| Cc1cc(C)cc(-c2ccc([N+](=O)[O-])c3nonc23)c1 [compound 286, 4-(3,5-Dimethylphenyl)-7-nitro-2,1,3-benzoxadiazole] | ≤ 4.70 | 4.70 to 6.00 | > 6.00 | 4.70 to 6.00 | ≤ 4.70 |
| O=[N+]([O-])c1ccc(-c2cccc(C(F)(F)F)c2)c2nonc12 [compound 309, 4-Nitro-7-[3-(trifluoromethyl)phenyl]-2,1,3-benzoxadiazole] | 4.70 to 6.00 |  | 4.70 to 6.00 |  | 4.70 to 6.00 |
| Cc1cccc(-c2ccc([N+](=O)[O-])c3nonc23)c1 [compound 310, 4-(3-Methylphenyl)-7-nitro-2,1,3-benzoxadiazole] | ≤ 4.70 |  | > 6.00 |  | > 6.00 |
| CC(C)(C)c1ccc(-c2ccc([N+](=O)[O-])c3nonc23)cc1 [compound 313, 4-(4-Tert-butylphenyl)-7-nitro-2,1,3-benzoxadiazole] | 4.70 to 6.00 |  | > 6.00 |  | > 6.00 |
| COc1cccc(-c2ccc([N+](=O)[O-])c3nonc23)c1F [compound 314, 4-(2-Fluoro-3-methoxyphenyl)-7-nitro-2,1,3-benzoxadiazole] | 4.70 to 6.00 |  | 4.70 to 6.00 |  | 4.70 to 6.00 |
| O=S(=O)(Nc1ccc2cn[nH]c2c1)c1c(O)ccc2nonc12 [compound 339, 5-hydroxy-N-(1H-indazol-6-yl)2,1,3-benzoxadiazole-4-sulfonamide] | ≤ 4.70 |  | ≤ 4.70 |  | ≤ 4.70 |
| O=S(=O)(c1c(N2CCC(Oc3ccccc3C(F)(F)F)CC2)ccc2nonc12)N1CCC(Oc2ccccc2C(F)(F)F)CC1 [compound 340, 5-[4-(2-{trifluoromethyl}phenoxy)piperidin-1-yl]-4-{[4-(2-{trifluoromethyl}phenoxy)piperidin-1-yl]sulfonyl}-2,1,3-benzoxadiazole] | ≤ 4.70 |  | 4.70 to 6.00 |  | 4.70 to 6.00 |
| COc1cc(NS(=O)(=O)c2ccc(Cl)c3nonc23)c(OC)cc1Cl [compound 341, 7-chloro-N-(4-chloro-2,5-dimethoxyphenyl)-2,1,3-benzoxadiazole-4-sulfonamide] | ≤ 4.70 |  | 4.70 to 6.00 |  | 4.70 to 6.00 |
